# From ChEMBL document CHEMBL1135674, “A new series of estrogen receptor modulators that display selectivity for estrogen receptor beta” (J Med Chem, 2002)
# Activity calls are given as the source filed them. The calls are words filed in the database; no cut-off is given here.
# Legend:
# [1] = biological target: T1, Estrogen receptor (Homo sapiens, UniProt P03372)
# T1 sequence (P03372 whole entry): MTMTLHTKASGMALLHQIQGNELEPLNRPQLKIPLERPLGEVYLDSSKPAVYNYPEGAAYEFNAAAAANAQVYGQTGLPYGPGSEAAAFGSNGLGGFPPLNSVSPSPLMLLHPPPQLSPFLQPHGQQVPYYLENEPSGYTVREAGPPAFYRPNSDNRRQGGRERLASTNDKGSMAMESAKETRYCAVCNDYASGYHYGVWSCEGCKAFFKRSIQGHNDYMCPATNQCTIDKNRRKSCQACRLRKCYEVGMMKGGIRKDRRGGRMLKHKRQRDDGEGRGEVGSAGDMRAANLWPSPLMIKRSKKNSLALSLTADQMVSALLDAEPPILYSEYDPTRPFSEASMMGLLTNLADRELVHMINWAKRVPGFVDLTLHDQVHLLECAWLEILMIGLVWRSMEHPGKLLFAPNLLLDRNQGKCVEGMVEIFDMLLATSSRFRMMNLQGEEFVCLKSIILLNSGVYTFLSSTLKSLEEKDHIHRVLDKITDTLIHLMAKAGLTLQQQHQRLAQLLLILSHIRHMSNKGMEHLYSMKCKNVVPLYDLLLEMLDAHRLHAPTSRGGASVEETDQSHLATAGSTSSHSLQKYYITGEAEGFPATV
# [2] = biological target: T2, Estrogen receptor beta (Homo sapiens, UniProt Q92731)
# [3] = biological target: T2, Estrogen receptor beta; details: T47D
# [4] = biological target: T2, Estrogen receptor beta; remark: listed apart in the source
# [5] = biological target: T1, Estrogen receptor; remark: listed apart in the source
# [6] = biological target: T1, Estrogen receptor; remark: listed apart in the source
# [7] = biological target: T2, Estrogen receptor beta; details: T47D; remark: listed apart in the source
# [8] = biological target: T2, Estrogen receptor beta; details: T47D, 10e-4 M
# T2 sequence (Q92731 whole entry): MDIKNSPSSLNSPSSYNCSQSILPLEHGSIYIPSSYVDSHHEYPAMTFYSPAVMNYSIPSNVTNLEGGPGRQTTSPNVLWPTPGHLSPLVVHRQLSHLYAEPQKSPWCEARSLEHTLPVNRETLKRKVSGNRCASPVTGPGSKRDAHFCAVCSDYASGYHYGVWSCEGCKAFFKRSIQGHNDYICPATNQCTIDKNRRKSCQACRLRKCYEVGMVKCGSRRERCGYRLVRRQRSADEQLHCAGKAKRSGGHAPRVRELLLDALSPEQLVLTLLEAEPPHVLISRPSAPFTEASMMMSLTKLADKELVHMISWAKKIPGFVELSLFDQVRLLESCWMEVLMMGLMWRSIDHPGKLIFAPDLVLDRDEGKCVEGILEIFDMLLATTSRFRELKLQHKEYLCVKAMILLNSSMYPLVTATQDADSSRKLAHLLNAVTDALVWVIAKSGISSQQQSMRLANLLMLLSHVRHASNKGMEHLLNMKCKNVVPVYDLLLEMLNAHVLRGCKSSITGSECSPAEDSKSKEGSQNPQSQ
Compound,Ki [1] [nM],Ki [2] [nM],further results
CN1CCN(c2nc(NCCCc3ccccc3)nc(NC3CCc4cc(O)ccc4C3)n2)CC1 (stereo not given),1000,170,
CN1CCN(c2nc(NCCCc3ccccc3)nc(N3CCCC(c4ccc(O)cc4)C3)n2)CC1 (stereo not given),> 10000,> 10000,
CCN(CC)C(=O)N1CCN(c2nc(NCCc3ccc(O)cc3)nc(N(C)CCCc3ccc(Cl)cc3)n2)CC1,> 10000,790,
CN(CCCc1ccc2c(c1)OCO2)c1nc(NCCc2ccc(O)cc2)nc(N2CCNCC2)n1,560,30,
CN(CCCc1ccc(Cl)cc1)c1nc(NCCc2ccc(O)cc2)nc(N2CCN(C(=O)N3CCOCC3)CC2)n1,2360,400,
CN1CCN(c2nc(NCCc3ccc(O)cc3)nc(OCCCc3ccccc3)n2)CC1,2400,1000,
CN1CCN(c2nc(NCCCCc3ccccc3)nc(NCCc3ccc(O)cc3)n2)CC1,415,490,
Oc1ccc(CCNc2nc(NCCc3ccccc3)nc(N3CCNCC3)n2)cc1,2370,1750,
CN1CCN(c2nc(NCCCc3ccccc3)nc(NC3CCc4ccc(O)cc4C3)n2)CC1 (stereo not given),> 10000,> 10000,
CN(CCCc1ccc(Cl)cc1)c1nc(NCCc2ccc(O)cc2)nc(N2CCN(S(=O)(=O)Cc3ccccc3)CC2)n1,1450,490,
Oc1ccc(CCNc2nc(SCCCc3ccc(Cl)cc3)nc(N3CCNCC3)n2)cc1,,,IA [3]: inactive
CN1CCN(c2nc(NCCc3ccc(O)cc3)nc(NC3CCc4ccccc43)n2)CC1 (stereo not given),> 10000,> 10000,
CN(CCCc1ccc(Cl)cc1)c1nc(NCCc2ccc(O)cc2)nc(N2CCN(Cc3ccccc3)CC2)n1,120,8,
CN(C)C(=O)CN1CCN(c2nc(NCCc3ccc(O)cc3)nc(N(C)CCCc3ccc(Cl)cc3)n2)CC1,3000,270,
CN1CCN(c2nc(NCCCc3ccccc3)nc(NCc3ccc(O)cc3)n2)CC1,5130,3690,
Oc1ccc(CCNc2nc(NCCCc3ccccc3)nc(N3CCNCC3)n2)cc1,1380,200,
CN(CCCc1ccc(Cl)cc1)c1nc(NCCc2ccc(O)cc2)nc(N2CCN(C3CCCC3)CC2)n1,180,40,

Compound,Ki [1] [nM],Ki [2] [nM],further results
CN(CCCC1CCCCC1)c1nc(NCCc2ccc(O)cc2)nc(N2CCNCC2)n1,1420,820,
CN(CCOc1ccc(Cl)cc1)c1nc(NCCc2ccc(O)cc2)nc(N2CCNCC2)n1,1000,170,
CN(CCCc1ccc(Cl)cc1)c1nc(NCCc2ccc(O)cc2)nc(N2CCN(S(=O)(=O)/C=C/c3ccccc3)CC2)n1,1300,225,
CN(CCCc1ccc(Cl)cc1)c1nc(NCCc2ccc(O)cc2)nc(N2CCN(Cc3ccncc3)CC2)n1,810,115,
CN(CCCc1ccc(Cl)cc1)c1nc(NCCc2ccc(O)cc2)nc(N2CCN(c3ccccc3)CC2)n1,6320,890,
CN1CCN(c2nc(NCCCc3ccccc3)nc(NCCc3cccc(O)c3)n2)CC1,> 10000,4250,
CN(CCCc1ccc(Cl)cc1)c1nc(NCCc2ccc(O)cc2)nc(N2CCN(C(=O)Nc3ccc(Cl)cc3)CC2)n1,855,425,
CN(CCCc1ccc(Cl)cc1)c1nc(NCCc2ccc(O)cc2)nc(N2CCN(CC(=O)c3ccccc3)CC2)n1,2040,200,
Oc1ccc(CCNc2nc(SCCOc3ccc(Cl)cc3)nc(N3CCNCC3)n2)cc1,570,90,
Oc1ccc(CCNc2nc(NC/C=C/c3ccccc3)nc(N3CCNCC3)n2)cc1,6870,4200,
CN(C[C@@H]1C[C@@H]1c1ccccc1)c1nc(NCCc2ccc(O)cc2)nc(N2CCNCC2)n1 (relative stereo),,,IA [3]: inactive
CC(C)S(=O)(=O)N1CCN(c2nc(NCCc3ccc(O)cc3)nc(N(C)CCCc3ccc(Cl)cc3)n2)CC1,> 10000,600,
O=C(c1ccc(OCCN2CCCCC2)cc1)c1c(-c2ccc(O)cc2)sc2cc(O)ccc12,,,IA [8]: inactive
CN1CCN(c2nc(NCCCc3ccccc3)nc(N3CCc4cc(O)ccc4C3)n2)CC1,> 10000,> 10000,
CN1CCN(c2nc(NCCCc3ccccc3)nc(NCCc3ccc(O)cc3)n2)CC1,3240,490,
CN(CCCc1ccc(Cl)cc1)c1nc(NCCc2ccc(O)cc2)nc(N2CCN(CC(=O)C(C)(C)C)CC2)n1,1020,210,

# More lines, in order of falling Ki [2], values ahead:
Ki [1] [nM],Ki [2] [nM],Compound,further results
1130,110,COc1ccc(C(=O)N2CCN(c3nc(NCCc4ccc(O)cc4)nc(N(C)CCCc4ccc(Cl)cc4)n3)CC2)cc1,
1050,110,CN(CCCc1ccc(Cl)cc1)c1nc(NCCc2ccc(O)cc2)nc(N2CCN(C(=O)CCc3ccccc3)CC2)n1,
2280,105,CN(CCCc1ccc(Cl)cc1)c1nc(NCCc2ccc(O)cc2)nc(N2C[C@@H]3C[C@H]2CN3)n1,
830,100,CCN(CCCc1ccc(Cl)cc1)c1nc(NCCc2ccc(O)cc2)nc(N2CCNCC2)n1,
570,100,CN(CCCc1ccc(Cl)cc1)c1nc(NCCc2ccc(O)cc2)nc(N2CCN(C(=O)COc3ccccc3)CC2)n1,
1140,100,Cc1ccc(CCCN(C)c2nc(NCCc3ccc(O)cc3)nc(N3CCNCC3)n2)cc1,
570,90,CN(CCCc1ccc(C#N)cc1)c1nc(NCCc2ccc(O)cc2)nc(N2CCNCC2)n1,
480,75,CN(CCCc1ccc(C(F)(F)F)cc1)c1nc(NCCc2ccc(O)cc2)nc(N2CCNCC2)n1,
200,55,Oc1ccc(CCNc2nc(NCCCc3ccc(Cl)cc3)nc(N3CCNCC3)n2)cc1,
270,50,CN1CCN(c2nc(NCCc3ccc(O)cc3)nc(SCCCc3ccccc3)n2)CC1,
,50,CN(CCCc1ccc(Cl)cc1)c1nc(NCCc2ccc(O)cc2)nc(N2CCN(Cc3ccccn3)CC2)n1,
680,40,CN(CCCc1ccccc1Cl)c1nc(NCCc2ccc(O)cc2)nc(N2CCNCC2)n1,
250,40,CCC(=O)CCN1CCN(c2nc(NCCc3ccc(O)cc3)nc(N(C)CCCc3ccc(Cl)cc3)n2)CC1,
,35,CN(CCCc1ccc(Cl)cc1)c1nc(NCCc2ccc(O)cc2)nc(N2CCN(Cc3cccnc3)CC2)n1,
360,30,C=CCN1CCN(c2nc(NCCc3ccc(O)cc3)nc(N(C)CCCc3ccc(Cl)cc3)n2)CC1,
125,25,CN(CCCc1ccc(Cl)cc1Cl)c1nc(NCCc2ccc(O)cc2)nc(N2CCNCC2)n1,
,25,Cc1nc(CN2CCN(c3nc(NCCc4ccc(O)cc4)nc(N(C)CCCc4ccc(Cl)cc4)n3)CC2)cs1,IC50 [4]: 5 nM; IA [3]: inactive
200,20,CN(CCCc1ccc(F)c(F)c1)c1nc(NCCc2ccc(O)cc2)nc(N2CCNCC2)n1,
300,15,CN(CCCc1ccc(Cl)cc1)c1nc(NCCc2ccc(O)cc2)nc(N2CCNCC2)n1,EC50 [5]: 180 nM; IC50 [4]: 5 nM; IC50 [6]: 110 nM; IA [7]: inactive
145,15,CN1CCN(c2nc(NCCc3ccc(O)cc3)nc(N(C)CCCc3ccc(Cl)cc3)n2)CC1,
395,15,CN(CCCc1ccc(Cl)cc1)c1nc(NCCc2ccc(O)cc2)nc(N2CCN(CCO)CC2)n1,EC50 [5]: 180 nM; IC50 [4]: 15 nM; IC50 [6]: 30 nM; IA [3]: inactive
60,15,C[C@@H]1CN(c2nc(NCCc3ccc(O)cc3)nc(N(C)CCCc3ccc(Cl)cc3)n2)C[C@H](C)N1,
380,15,CN(CCCc1ccc(F)cc1)c1nc(NCCc2ccc(O)cc2)nc(N2CCNCC2)n1,EC50 [5]: 200 nM; IC50 [4]: 15 nM; IC50 [6]: 240 nM; IA [3]: inactive
